Experimental data as given in publication PMC7868085, “A potent and selective small molecule inhibitor of myoferlin attenuates colorectal cancer progression” (Clinical and Translational Medicine, 2021).

Target: T1, Myoferlin (MYOF) (Homo sapiens, UniProt Q9NZM1)
T1 construct: C2D domain of MYOF (MYOF-C2D)
T1 sequence (Q9NZM1 1123-1251 limits assumed): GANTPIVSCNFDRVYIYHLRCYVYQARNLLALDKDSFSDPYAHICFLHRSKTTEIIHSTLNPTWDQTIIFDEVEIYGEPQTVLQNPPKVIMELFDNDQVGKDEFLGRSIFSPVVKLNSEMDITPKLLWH
Experiment: SPR (Biacore T200, immobilized MYOF-C2D); confirmed by BLI (KD =[…])
Assay type: binding

Kd: 37 nM
SMILES: CCc1nc(-c2ccc(OC)cc2)n(-c2cccc(C(=O)NCCCCc3ccccc3)c2)n1 [YQ456, 3‐(3‐ethyl‐5‐(4‐methoxyphenyl)‐1H‐1,2,4‐triazol‐1‐yl)‐N‐(4‐phenylbutyl)benzamide]
